Read-outs that look alike come from different tables or passages of the source.
Assays:
[1] = tested on: HCC827 cells (EGFR delE746-A750); assay: Cell proliferation (CellTiter Glo, 72 hr), HCC827 cells; type: cell-based, human
Method: (§1) A431 human epidermoid carcinoma, H1975 human NSCLC and HCC827 human NSCLC adenocarcinoma cells were obtained from the American Type Culture Center (Manassas, Va.). A431 cells were grown in DMEM (Invitrogen, Carlsbad, Calif.) supplemented with 10% FBS (HyClone, South Logan, Utah) and 1% Penicillin-Streptomycin (P/S, Lonza, Walkersville, Md.).
(§2) Cells were plated in Growth Media supplemented with 5% FBS and 1% P/S at a density of 3,000 cells per well in 96 well tissue culture plates (Corning). […] Growth inhibition (GI50) values were determined by Graph Pad Prism.

[2] = tested on: H1975 cells (EGFR L858R/T790M); assay: Cell proliferation (CellTiter Glo, 72 hr), H1975 cells; type: cell-based, human
Method: as §1, §2

[3] = molecular target: EGFR delE746-A750 (HCC827 cells) (Homo sapiens (Human), UniProt P00533, DEL746-750); assay: Phospho-EGFR signaling immunoblot (1 hr), HCC827 cells; type: cell-based; conditions: WT EGFR (A431) vs HCC827
Method: as §1
(§3) All primary antibodies were obtained from Cell Signaling (Danvers, Mass.) and used at 1:1000. Secondary antibodies were used at 1:10,000. Goat anti-mouse IgG IRDye 800CW antibody was obtained from LiCor Biosciences (Lincoln, Nebr.) and goat anti-rabbit IgG Alexa Fluor 680 was obtained from Invitrogen.
(§4) Cells were grown in 12-well plates (Corning, Coring, N.Y.) to 90% confluence and then incubated in low-serum (0.1% FBS) media for 16-18 hr. […] A431 cells were then stimulated with 50 ng/ml EGF (Peprotech, Rocky Hill, N.J.) for 15 min. After treatment, cell monolayers were washed with cold PBS (Invitrogen) and immediately lysed by scrapping into 60 uL cold Cell Extraction Buffer (Invitrogen) supplemented with Complete Protease inhibitors (Roche, Indianapolis, Ind.) and PhosphoSTOP (Roche) phosphatase inhibitors.
(§5) Phospho-protein signals were quantitated using Odyssey Infrared Imaging (Li-Cor Biosciences).
(§6) To assess phosphor-EGFR signaling, blots were probed with rabbit anti-Phospho-EGFR (Y1068) and mouse total anti-EGFR antibodies. Phospho-EGFR signal was normalized to total EGFR expression for each sample. […] Normalized data was fitted using a sigmoidal curve analysis program (Graph Pad Prism version 5) with variable Hill slope to determine the EC50 values.

[4] = molecular target: EGFR L858R/T790M (H1975 cells) (Homo sapiens (Human), UniProt P00533, L858R/T790M); assay: Phospho-EGFR signaling immunoblot (1 hr), H1975 cells; type: cell-based; conditions: WT EGFR (A431) vs H1975
Method: as §1, §3, §4, §5, §6

[5] = molecular target: pEGFR in H1975 cells (Homo sapiens (Human), UniProt P00533, L858R/T790M); assay: Washout experiment in H1975 cells; type: cell-based; conditions: 500 nM for 1 hr, then washout
Method: Washout Experiment in H1975 Cells Containing EGFR Deletion/T790M Mutation
Cells were plated in Growth Media supplemented with 10% FBS and 1% P/S at a density of 2.0×10^5 cells per well in 12 well tissue culture plates. Cells were allowed to settle down for 4 hrs and then maintained in low-serum (0.1% FBS) media overnight.
The following morning the media was removed and the cells were treated with 500 nM test compound in low-serum media for 1 hr. The cells were washed free of compound 2× with PBS (Invitrogen). One set of cells were immediately lysed as indicated above as the 0 hr time point. The remaining cells were incubated with complete RPMI-1640 growth media (10% FBS) for 1, 3, 6 and 24 hr. For the first 1 hr, cells were washed 2× with PBS every 30 min. DMSO (0.5%) controls were collected at the 0, 3, 6 and 24 hr time points.

[6] = proliferation, WT EGFR (A431) vs HCC827
[7] = proliferation, WT EGFR (A431) vs H1975

| SMILES | Ratio WT/mutant [1, 6] | Ratio WT/mutant [2, 7] | Ratio WT/mutant [3] | Ratio WT/mutant [4] | Ratio WT/mutant [1] | Ratio WT/mutant [2] | duration of action after compound removal [5] |
| --- | --- | --- | --- | --- | --- | --- | --- |
| C=CC(=O)Nc1cccc(Nc2nc(Nc3ccc(N4CCN(S(C)(=O)=O)CC4)cc3OC)ncc2C(F)(F)F)c1 [Compound I-17, N-(3-(2-(2-methoxy-4-(4-(methylsulfonyl)piperazin-1-yl)phenylamino)-5-(trifluoromethyl)pyrimidin-4-ylamino)phenyl)acrylamide] | >15 | >10 | >5 | >30 |  |  |  |
| C=CC(=O)Nc1cccc(Oc2nc(Nc3ccc(N4CCN(C(=O)OC(C)(C)C)CC4)cc3OC)ncc2Cl)c1 [Compound I-46, tert-butyl 4-(4-(4-(3-acrylamidophenoxy)-5-chloropyrimidin-2-ylamino)-3-methoxyphenyl)piperazine-1-carboxylate] |  |  | >50 | >10 | >10 | >1 |  |
| C=CC(=O)Nc1cccc(Nc2nc(Nc3ccc(N4CCOCC4)cc3OC(F)F)ncc2C(F)(F)F)c1 [Compound I-14, N-(3-(2-(2-(difluoromethoxy)-4-morpholinophenylamino)-5-(trifluoromethyl)pyrimidin-4-ylamino)phenyl)acrlamide] | >10 | >5 | >15 | >15 |  |  |  |
| C=CC(=O)Nc1cccc(Nc2nc(Nc3ccc(N4CCOCC4)cc3OC)ncc2C(F)(F)F)c1 [Compound I-2, N-(3-(2-(2-methoxy-4-morpholinophenylamino)-5-(trifluoromethyl)pyrimidin-4-ylamino)phenyl)acrylamide] | >40 | >20 |  | >50 |  |  | prolonged duration of action after compound removal |
| C=CC(=O)Nc1cccc(Nc2nc(Nc3ccc(N4CCN(C(C)=O)CC4)cc3OC)ncc2C(F)(F)F)c1 [Compound I-4, N-(3-(2-(4-(4-acetylpiperazin-1-yl)-2-methoxyphenylamino)-5-(trifluoromethyl)pyrimidin-4-ylamino)phenyl)acrylamide] |  |  |  |  |  |  | prolonged duration of action after compound removal |
| C=CC(=O)Nc1cccc(Nc2nc(Nc3ccc(N4CCN(C(C)=O)CC4)cc3OC)ncc2Cl)c1 [Compound I-8, N-(3-(2-(4-(4-acetylpiperazin-1-yl)-2-methoxyphenylamino)-5-chloropyrimidin-4-ylamino)phenyl)acrylamide] | >20 | >1 |  | >1 |  |  |  |
| C=CC(=O)Nc1cccc(Nc2nc(Nc3ccc(N4CCCN(C(C)=O)CC4)cc3OC)ncc2C(F)(F)F)c1 [Compound I-7, N-(3-(2-(4-(4-acetyl-1,4-diazepan-1-yl)-2-methoxyphenylamino)-5-(trifluoromethyl)pyrimidin-4-ylamino)phenyl)acrylamide] | >10 | >1 |  | >5 |  |  |  |
